# Assay results reported in patent US20220364179A1, “METHODS AND COMPOSITIONS FOR ASSESSING AND PREDICTING THERAPEUTIC RESPONSE” (Lankenau Institute for Medical Research, priority 2019, published 2022).
# Experiments:
# rheumatoid arthritis = conditions: mouse model of rheumatoid arthritis; Merlo et al. 2014; cited from earlier work
# melanoma = melanoma cohort, response to therapy by IDO2 genotype; format: in vivo, human
# Procedure: In the melanoma cohort, 84 patients were genotyped with 6 patients returning uncertain results. The remaining 78 patients, including 52 males and 26 females, were treated and analyzed in a similar way to the PDAC patients of Example 3 above. The results of the 46 patients, including 31 males and 15 females, in this cohort that responded positively to IDO and/or other indicated therapies were also analyzed.
# [1] = system: metastatic adenocarcinoma of the pancreas; assay: Phase I/II trial NCT02077881: indoximod with gemcitabine plus nab-paclitaxel, responses by IDO2 genotype; format: in vivo, human; conditions: for PR + CR (positive response), row % / PR + CR, number of patients: + gemcitabine plus nab-paclitaxel
# Procedure: The treatment protocol was as described in ClinicalTrials.gov Identifier NCT02077881, which was a Phase I/II trial designed to evaluate the combination of the immunotherapeutic agent indoximod (an IDO inhibitor) and the standard of care chemotherapy gemcitabine plus nab-paclitaxel in subjects with metastatic adenocarcinoma of the pancreas. Participants received oral indoximod (600 mg, […], or 1200 mg according to their assigned dose cohort) twice daily for 28 days concurrently with IV Nab-paclitaxel 125 mg/m^2 given intravenously over 30-40 minutes for 3 weeks (days 1, 8 and 15) with 1 week rest, followed by gemcitabine 1000 mg/m^2 given intravenously over 30 minutes for 3 weeks (days 1, 8 and 15) with 1 week rest. All subjects will receive the standard 28-day gemcitabine plus nab-paclitaxel regimen. Twice daily oral indoximod was administered concurrently in continuous 28 day cycles. Patients continued until they experienced disease progression or significant toxicity.
# Genotyping to detect the wild-type IDO2 alleles or a polymorphisms in one or both alleles was performed using a protocol as provided in Example 2.
# Two-sample tests of independent proportions were performed to compare the percentage of positive responders between two groups. Observed versus expected genotype distributions were compared using one-sample tests of proportions. The significance level was set to 0.05 and all tests were one-sided except for the tests comparing response by sex and the tests comparing observed and expected genotypes. Analyses were performed in Stata/MP 15.1 (StataCorp LP., Texas, USA). See the data in FIG. 6A -6D.
# brain metastases = assay: whole brain radiotherapy with low-dose chloroquine in patients with brain metastases; format: in vivo, human; conditions: low-dose chloroquine in continuous cycles one week before and during standard of care irradiation; N=20; P=0.07
# mouse tumor models = conditions: cited from earlier work
# [2] = Females, all genotypes, no exclusions, Total 40
# [3] = Females, excludes (+/p or p/p) uncertain genotype, Total 32
# [4] = Males, all genotypes, no exclusions, Total 67
# [5] = Males, excludes (+/p or p/p) uncertain genotype, Total 47
# [6] = genotype +/+ or +/p, both sexes, Total 56
# [7] = genotype +/+ or +/p, females only, Total 22
# [8] = genotype +/+ or +/p, males only, Total 34
# [9] = genotype +/+, both sexes, excludes uncertain genotype, Total 15
# [10] = genotype +/+, females only, excludes uncertain genotype, Total 7
# [11] = genotype +/+, males only, excludes uncertain genotype, Total 8
# [12] = genotype +/p, both sexes, excludes uncertain genotype, Total 41
# [13] = genotype +/p, females only, excludes uncertain genotype, Total 15
# [14] = genotype +/p, males only, excludes uncertain genotype, Total 26
# [15] = genotype p/p, both sexes, excludes uncertain genotype, Total 23
# [16] = genotype p/p, females only, excludes uncertain genotype, Total 10
# [17] = genotype p/p, males only, excludes uncertain genotype, Total 13
compound,measurement,setting,value
"Cn1cc(C[C@H](N)C(=O)O)c2ccccc21 [indoximod, 1-methyl-tryptophan]",therapeutic responses after deletion of the IDO2 gene,rheumatoid arthritis,ablate therapeutic responses
same,more frequent response than the expected population,"melanoma; female cohort, patients with the +/+ or +/p alleles",41%
same,less frequent response than the expected population,melanoma; female patients without the active allele (p/p),70%
same,overall survival,"melanoma; inactive IDO2 genetic configuration, adjuvant radiotherapy including treatment with indoximod",extended overall survival
same,"PR + CR (positive response), row %",[1]; [2],60.0%
same,"PR + CR, number of patients",[1]; [2],24
same,"PR + CR (positive response), row %",[1]; [3],62.5%
same,"PR + CR, number of patients",[1]; [3],20
same,"PR + CR (positive response), row %",[1]; [4],43.3%
same,"PR + CR, number of patients",[1]; [4],29
same,"PR + CR (positive response), row %",[1]; [5],51.1%
same,"PR + CR, number of patients",[1]; [5],24
same,"PR + CR, number of patients","[1]; both sexes, excludes (+/p or p/p) uncertain genotype, Total 79",44
same,"PR + CR (positive response), row %","[1]; both sexes, includes uncertain genotype, Total 51",35.3%
same,"PR + CR, number of patients","[1]; genotype (+/p or p/p) or p/p, both sexes, includes uncertain genotype, Total 51",18
same,"PR + CR, number of patients","[1]; genotype (+/p or p/p) or p/p, males only, includes uncertain genotype, Total 33",9
same,"PR + CR (positive response), row %",[1]; [6],62.5%
same,"PR + CR, number of patients",[1]; [6],35
same,"PR + CR (positive response), row %",[1]; [7],68.2%
same,"PR + CR, number of patients",[1]; [7],15
same,"PR + CR (positive response), row %",[1]; [8],58.8%
same,"PR + CR, number of patients",[1]; [8],20
same,"PR + CR (positive response), row %",[1]; [9],53.3%
same,"PR + CR, number of patients",[1]; [9],8
same,"PR + CR (positive response), row %",[1]; [10],42.9%
same,"PR + CR, number of patients",[1]; [10],3
same,"PR + CR (positive response), row %",[1]; [11],62.5%
same,"PR + CR, number of patients",[1]; [11],5
same,"PR + CR (positive response), row %",[1]; [12],65.9%
same,"PR + CR, number of patients",[1]; [12],27
same,"PR + CR (positive response), row %",[1]; [13],80.0%
same,"PR + CR, number of patients",[1]; [13],12
same,"PR + CR (positive response), row %",[1]; [14],57.7%
same,"PR + CR, number of patients",[1]; [14],15
same,"PR + CR (positive response), row %",[1]; [15],39.1%
same,"PR + CR, number of patients",[1]; [15],9
same,"PR + CR (positive response), row %",[1]; [16],50.0%
same,"PR + CR, number of patients",[1]; [16],5
same,"PR + CR (positive response), row %",[1]; [17],30.8%
same,"PR + CR, number of patients",[1]; [17],4
same,"PR + CR (positive response), row %","[1]; males only, includes uncertain genotype, Total 33",27.3%
same,"PR + CR, number of patients","[1]; whole cohort, both sexes, no exclusions, Total 107",53
same,"therapeutic responses, outcomes stratified to IDO2 genotype","[1]; in combination with gemcitabine in PDAC patients, patients harboring functional IDO2 alleles, initial cohort",trend in improved therapeutic responses
CCN(CC)CCCC(C)Nc1ccnc2cc(Cl)ccc12 (stereo not drawn) [chloroquine],survival outcomes,brain metastases,trend in improvement of survival outcomes
"Cn1cc(CC(N)C(=O)O)c2ccccc21 [D, L-1MT]",effect on efficacy of radiotherapy,mouse tumor models,improve the efficacy of radiotherapy
